Assay results reported in US11203591B2, “Substituted 6-azabenzimidazole compounds” (Gilead Sciences, Inc., priority 2018, dated 2021).

Target: human HPK1 (MAP4K1) (Homo sapiens (Human), UniProt Q92918)
Assay: HPK1 IC50 Assay (TR-FRET peptide phosphorylation)
Format: biochemical
Conditions: recombinant HPK1 kinase domain 0.15 nM, 10 μM ATP, 1 μM STK S1 peptide; geometric mean of multiple experiments
Description: The enzymatic activity of human HPK1 (MAP4K1) was monitored in a biochemical assay in the presence or absence of compounds and using a synthetic peptide substrate. An increase in phosphorylation of the peptide by HPK1 was indicative of its kinase activity.
Recombinant HPK1 kinase domain produced via baculovirus infection of insect cells was obtained from Proteros (Proteros Biostructures #PR-0322) and was pre-activated in the presence of 2 mM ATP (Sigma-Aldrich, cat #GE27-2056-01) and 2 mM magnesium chloride for 16 hours at 4° C. The protein reaction mixture was then loaded to a desalting column (Thermo Fisher Scientific, Cat #89889) to remove excess ATP. HPK1 was eluted with buffer containing 20 mM Tris (2-Amino-2-(hydroxymethyl)propane-1,3-diol) pH 8.0, 150 mM NaCl, 2 mM dithiothreitol and 5% glycerol, and was frozen at −80° C. for later use. HPK1 dual phosphorylation was confirmed by mass spectrometry.
Ten nanoliters of test compounds dissolved in DMSO at various concentrations were dispensed into a 384-well ProxiPlate (PerkinElmer #6008289). Five microliters of a solution of recombinant HPK1 diluted in HPK1 kinase assay buffer (50 mM BES [N,N-Bis(2-hydroxyethyl)-2-aminoethanesulfonic acid], pH 7.0; 10 mM magnesium chloride; 0.01% Triton X-100; 1 mM dithiothreitol; 0.01% bovine serum albumin; 0.1 mM sodium orthovanadate) was added to the compound-containing plate and was incubated for 15 minutes at 25° C. Five microliters of a mixture of ATP (Sigma-Aldrich #A6559) and peptide substrate STK S1 (Cisbio #61ST1BLC) diluted in HPK1 kinase assay buffer was then added to start the reaction. Final concentrations were 0.15 nM for HPK1, 10 μM for ATP, and 1 μM for the STK S1 peptide substrate. The reaction mixture was incubated at 25° C. for 3 hours and was stopped with the addition of 10 μl of an EDTA (Ethylenediaminetetraacetic acid)-containing detection buffer (Cisbio #62SDBRDF) supplemented with Europium cryptate-labeled anti-phospho-serine/threonine antibodies (Cisbio #62ST1PEJ) and XL665-labeled streptavidin (Cisbio #610SAXLG). The mixture was incubated for 16 hours at room temperature and peptide phosphorylation was measured by time-resolved fluorescence energy transfer (665 nm/620 nm) on an Envision plate reader (PerkinElmer).
Data in Table 1 were normalized based on positive (staurosporine) and negative (DMSO) controls. Least squares curve fittings were performed using a four-parameter variable slope nonlinear regression model. IC50 is defined as the concentration of compound required to inhibit 50% of maximum phosphorylation. IC50 values from multiple experiments were averaged by geometric mean and the standard deviation was calculated.

Chain of human HPK1 (MAP4K1) (Q92918 17-274): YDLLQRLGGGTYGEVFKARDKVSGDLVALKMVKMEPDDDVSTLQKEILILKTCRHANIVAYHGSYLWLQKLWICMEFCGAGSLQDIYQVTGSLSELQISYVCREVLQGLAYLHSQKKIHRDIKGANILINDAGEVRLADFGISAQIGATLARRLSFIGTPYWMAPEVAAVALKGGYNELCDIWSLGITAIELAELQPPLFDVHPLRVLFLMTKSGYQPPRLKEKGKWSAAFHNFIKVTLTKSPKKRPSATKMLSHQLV

Row | Structure (SMILES) | IC50
1 | Cc1c(C(=O)NC2(C(F)F)CC2)cc(Nc2nc(-c3cnc4c(c3)N([C@H]3C[C@@](C)(N5CCC6CC5CO6)C3)C(=O)C4(C)C)cc3ncn(C(C)C)c23)c(F)c1F (mixture of isomers) [Example 190, 5-((6-(1-((1s,3s)-3-(6-Oxa-2-azabicyclo[3.2.1]octan-2-yl)-3-methylcyclobutyl)-3,3-dimethyl-2-oxo-2,3-dihydro-1H-pyrrolo[3,2-b]pyridin-6-yl)-3-isopropyl-3H-imidazo[4,5-c]pyridin-4-yl)amino)-N-(1-(difluoromethyl)cyclopropyl)-3,4-difluoro-2-methylbenzamide] | 0.07 nM
2 | CC(C)n1cnc2cc(-c3cnc4c(c3)N([C@H]3C[C@@](C)(N5CCC6CC6C5)C3)C(=O)C4(C)C)nc(Nc3cc(C(=O)NC4(CF)CC4)c(Cl)c(F)c3F)c21 (mixture of isomers) [Example 257, 5-((6-(1-((1s,3s)-3-(3-azabicyclo[4.1.0]heptan-3-yl)-3-methylcyclobutyl)-3,3-dimethyl-2-oxo-2,3-dihydro-1H-pyrrolo[3,2-b]pyridin-6-yl)-3-isopropyl-3H-imidazo[4,5-c]pyridin-4-yl)amino)-2-chloro-3,4-difluoro-N-(1-(fluoromethyl)cyclopropyl)benzamide] | 0.1 nM
3 | CC(C)n1cnc2cc(-c3cnc4c(c3)N([C@H]3C[C@@](C)(N5CCC6CC6C5)C3)C(=O)C4(C)C)nc(Nc3cc(C(=O)NC4(C(F)F)CC4)c(Cl)c(F)c3F)c21 (mixture of isomers) [Example 260, 5-((6-(1-((1s,3s)-3-(3-azabicyclo[4.1.0]heptan-3-yl)-3-methylcyclobutyl)-3,3-dimethyl-2-oxo-2,3-dihydro-1H-pyrrolo[3,2-b]pyridin-6-yl)-3-isopropyl-3H-imidazo[4,5-c]pyridin-4-yl)amino)-2-chloro-N-(1-(difluoromethyl)cyclopropyl)-3,4-difluorobenzamide] | 0.08 nM
4 | CNC(=O)c1cc(Nc2nc(-c3ccc4c(c3)N([C@H]3C[C@@H](N5CCCCC5)C3)C(=O)C4(C)C)cc3ncn(C(C)C)c23)ccc1C [Example 1, 5-((6-(3,3-dimethyl-2-oxo-1-((1s,3s)-3-(piperidin-1-yl)cyclobutyl)indolin-6-yl)-3-isopropyl-3H-imidazo[4,5-c]pyridin-4-yl)amino)-N,2-dimethylbenzamide] | 0.08 nM
5 | Cc1ccc(Nc2nc(-c3ccc4c(c3)N([C@H]3C[C@@H](N5CCCCC5)C3)C(=O)C4(C)C)cc3ncn(C(C)C)c23)cc1C(=O)NC1CCC1 [Example 2] | 0.1 nM
6 | CNC(=O)c1cc(Nc2nc(-c3ccc4c(c3)N([C@H]3C[C@@H](N5CCC(C)(C)C5)C3)C(=O)C4(C)C)cc3ncn(C(C)C)c23)ccc1C [Example 3] | 0.1 nM
7 | CNC(=O)c1cc(Nc2nc(-c3ccc4c(c3)N([C@H]3C[C@@H](N5CC[C@@H](F)C5)C3)C(=O)C4(C)C)cc3ncn(C(C)C)c23)ccc1C [Example 4] | 0.1 nM
8 | CNC(=O)c1cc(Nc2nc(-c3ccc4c(c3)N([C@H]3C[C@@H](N5CC[C@H](F)C5)C3)C(=O)C4(C)C)cc3ncn(C(C)C)c23)ccc1C [Example 5] | 0.2 nM
9 | CNC(=O)c1cc(Nc2nc(-c3ccc4c(c3)N([C@H]3C[C@@H](N5C6COCC5C6)C3)C(=O)C4(C)C)cc3ncn(C(C)C)c23)ccc1C [Example 6] | 0.1 nM
10 | CNC(=O)c1cc(Nc2nc(-c3ccc4c(c3)N([C@H]3C[C@@H](N5CC6C(C5)C6(F)F)C3)C(=O)C4(C)C)cc3ncn(C(C)C)c23)ccc1C (some centres unmarked) [Example 7] | 0.4 nM
11 | CNC(=O)c1cc(Nc2nc(-c3ccc4c(c3)N([C@H]3C[C@@H](N5C6CCC5COC6)C3)C(=O)C4(C)C)cc3ncn(C(C)C)c23)c(F)cc1C [Example 8] | 0.08 nM
12 | CNC(=O)c1cc(Nc2nc(-c3ccc4c(c3)N([C@H]3C[C@@H](N5C6COCC5C6)C3)C(=O)C4(C)C)cc3ncn(C(C)C)c23)c(F)cc1C [Example 9] | 0.1 nM
13 | CNC(=O)c1cc(Nc2nc(-c3ccc4c(c3)N([C@H]3C[C@@H](N5CC6CCC(C5)O6)C3)C(=O)C4(C)C)cc3ncn(C(C)C)c23)c(F)cc1C [Example 10] | 0.1 nM
14 | CNC(=O)c1cc(Nc2nc(-c3ccc4c(c3)N([C@H]3C[C@@H](NC(C)C)C3)C(=O)C4(C)C)cc3ncn(C(C)C)c23)ccc1C [Example 11] | 0.1 nM
15 | CNC(=O)c1cc(Nc2nc(-c3ccc4c(c3)N([C@H]3C[C@@H](N[C@@H]5CCOC[C@@H]5C)C3)C(=O)C4(C)C)cc3ncn(C(C)C)c23)ccc1C [Example 12] | 0.09 nM
16 | CNC(=O)c1cc(Nc2nc(-c3ccc4c(c3)N([C@H]3C[C@@H](N[C@@H]5CCOC[C@H]5C)C3)C(=O)C4(C)C)cc3ncn(C(C)C)c23)ccc1C [Example 13] | 0.1 nM

Row | Structure (SMILES) | IC50
17 | CNC(=O)c1cc(Nc2nc(-c3ccc4c(c3)N([C@H]3C[C@@H](NC(C)C)C3)C(=O)C4(C)C)cc3ncn(C(C)C)c23)c(F)cc1C [Example 14] | 0.3 nM
18 | CNC(=O)c1cc(Nc2nc(-c3ccc4c(c3)N([C@H]3C[C@@H](NCC(C)(C)O)C3)C(=O)C4(C)C)cc3ncn(C(C)C)c23)c(F)cc1C [Example 15] | 0.1 nM
19 | Cc1ccc(Nc2nc(-c3ccc4c(c3)N([C@H]3C[C@@H](N5CCOC(C)(C)C5)C3)C(=O)C4(C)C)cc3ncn(C4CC4)c23)cc1C(N)=O [Example 16] | 0.1 nM
20 | Cc1ccc(Nc2nc(-c3ccc4c(c3)N([C@H]3C[C@@H](N5CCC[C@@H](F)C5)C3)C(=O)C4(C)C)cc3ncn(C4CC4)c23)cc1C(N)=O [Example 17] | 0.04 nM
21 | CNC(=O)c1cc(Nc2nc(-c3cnc4c(c3)N([C@H]3C[C@@H](N5CCCCC5)C3)C(=O)C4(C)C)cc3ncn(C(C)C)c23)ccc1C [Example 18] | 0.4 nM
22 | Cc1ccc(Nc2nc(-c3cnc4c(c3)N([C@H]3C[C@@H](N5CCCCC5)C3)C(=O)C4(C)C)cc3ncn(C(C)C)c23)cc1C(=O)NC1(C(F)F)CC1 [Example 19] | 0.3 nM
23 | Cc1ccc(Nc2nc(-c3ccc4c(c3)N([C@H]3C[C@@H](N5CCCCC5)C3)C(=O)C4(C)C)cc3ncn(C(C)C)c23)cc1C(=O)NCC(F)F [Example 20] | 0.05 nM
24 | Cc1ccc(Nc2nc(-c3ccc4c(c3)N([C@H]3C[C@@H](N5CCCCC5)C3)C(=O)C4(C)C)cc3ncn(C(C)C)c23)cc1C(=O)NC(C)C(F)F (some centres unmarked) [Example 21, N-(1,1-difluoropropan-2-yl)-5-((6-(3,3-dimethyl-2-oxo-1-((1s,3s)-3-(piperidin-1-yl)cyclobutyl)indolin-6-yl)-3-isopropyl-3H-imidazo[4,5-c]pyridin-4-yl)amino)-2-methylbenzamide] | 0.05 nM
25 | Cc1ccc(Nc2nc(-c3ccc4c(c3)N([C@H]3C[C@@H](N5CCCCC5)C3)C(=O)C4(C)C)cc3ncn(C(C)C)c23)cc1C(=O)N[C@@H](C)C(F)F [Example 21A, N-(1,1-difluoropropan-2-yl)-5-((6-(3,3-dimethyl-2-oxo-1-((1s,3s)-3-(piperidin-1-yl)cyclobutyl)indolin-6-yl)-3-isopropyl-3H-imidazo[4,5-c]pyridin-4-yl)amino)-2-methylbenzamide] | 0.07 nM
26 | Cc1ccc(Nc2nc(-c3ccc4c(c3)N([C@H]3C[C@@H](N5CCCCC5)C3)C(=O)C4(C)C)cc3ncn(C(C)C)c23)cc1C(=O)N[C@H](C)C(F)F [Example 21B, N-(1,1-difluoropropan-2-yl)-5-((6-(3,3-dimethyl-2-oxo-1-((1s,3s)-3-(piperidin-1-yl)cyclobutyl)indolin-6-yl)-3-isopropyl-3H-imidazo[4,5-c]pyridin-4-yl)amino)-2-methylbenzamide] | 0.07 nM
27 | CCNC(=O)c1cc(Nc2nc(-c3ccc4c(c3)N([C@H]3C[C@@H](N5CCCCC5)C3)C(=O)C43CCOCC3)cc3ncn(C(C)C)c23)ccc1C [Example 22] | 0.07 nM
28 | Cc1ccc(Nc2nc(-c3ccc4c(c3)N([C@H]3C[C@@H](N5CCCCC5)C3)C(=O)C43CCOCC3)cc3ncn(C(C)C)c23)cc1C(=O)NC1CCC1 [Example 23] | 0.2 nM
29 | CCCNC(=O)c1cc(Nc2nc(-c3ccc4c(c3)N([C@H]3C[C@@H](N5CCCCC5)C3)C(=O)C4(C)C)cc3ncn(C(C)C)c23)ccc1C [Example 24] | 0.08 nM
30 | Cc1ccc(Nc2nc(-c3ccc4c(c3)N([C@H]3C[C@@H](N5CCCCC5)C3)C(=O)C4(C)C)cc3ncn(C(C)C)c23)cc1C(=O)NCCC(F)F [Example 25] | 0.07 nM
31 | Cc1ccc(Nc2nc(-c3ccc4c(c3)N([C@H]3C[C@@H](N5CCCCC5)C3)C(=O)C4(C)C)cc3ncn(C(C)C)c23)cc1C(=O)NC1CC1 [Example 26] | 0.1 nM
32 | Cc1ccc(Nc2nc(-c3ccc4c(c3)N([C@H]3C[C@@H](N5CCCCC5)C3)C(=O)C4(C)C)cc3ncn(C(C)C)c23)cc1C(=O)NC1(C(F)F)CC1 [Example 27] | 0.07 nM
